From patent US5886185A, “Polyamine-linked acridine dimers” (Development Center for Biotechnoloy, priority 1997, dated 1999)
Converted amounts (≈) assume the structure as drawn. Structures can show the parent of a compound that is named as a salt. Values belong to the compound of their own block, whether it stands above or below them.

Assays:
[1] = test system: pUC19 plasmid; test: DNA intercalating assay (DNA band shift); type: binding
Method: A culture of JM83 bacteria containing a pUC19 plasmid was grown in 500 mL of ampicillin culture medium, and harvested by centrifugation at 4000 rpm for 15 minutes at 4° C. The pellets were lysed by alkali method and the DNA plasmids were collected as the lower band (corresponding to the closed circular DNA) of a centrifuge tube after CsCl-ethidium bromide gradient centrifugation. This collection method is described in, for example, Molecular Cloning: A Laboratory Manual, Cold Spring Harbor Laboratory Press, (1989). After removal of ethidium bromide from the DNA plasmids with 1-butanol saturated with water, the CsCl was removed by dialysis with TE (pH 8.0) buffer.
The pUC19 plasmid (1 μg in each reaction) was incubated with various concentrations of solutions containing different polyamine-linked acridine dimers for 30 minutes at 25° C. in 20 μL reaction mixtures (10 mM Tris-HCl, pH 7.4, 0.1 mM EDTA, and 5 mM NaCl). After reaction, the DNA mixture was run on a 1.0% agarose gel, which was stained with ethidium bromide and destained with distilled water. The shifts of the DNA bands were visualized using UV light and analyzed by photography. The DNA band shifting pattern formed a sigmoidal curve. The 50% shift concentration (SC50) corresponded to a 50% DNA band shift at the particular concentration, according to the curve of the DNA band-shifting photograph.

[2] = water solubility; type: physicochemical; conditions: Table I
[3] = test system: human COLO 205 solid tumors; test: in vivo antitumor activity for human COLO 205 solid tumors; set-up: species or system human tumor in SCID mice
Method: SCID mice (16-18 g, 4-5 weeks old) were obtained from the animal center at the medical center of National Taiwan University, Taipei, R.O.C. and allowed to acclimate to their new environment for one week. The mice were given a sterilized pellet diet and sterilized water ad libitum, and housed under specific pathogene-free conditions in a temperature range between 23°-25° C. and a humidity of about 50±10%. The lighting was automatically operated on a 12 hour light/dark cycle. COLO 205 cells were obtained from ATCC, propagated in culture medium, and subcutaneously inoculated into the dorsal site of the mice.
After solid tumors were grown up to a size of about 1 gram, COLO 205F1 was isolated from the primary culture of the solid tumor and inoculated into the dorsal site of the mice. These tumors were grown to a size of approximately 200 mg (i.e., in a range of 100-300 mg). The mice were sorted according to body weight into groups including five mice. The compounds of Examples 5 and 6 were respectively resuspended in various solvents. The dosage of each compound was intraperitoneally (ip) or intravenously (iv) administered with different schedules. Tumor weights at the beginning of chemotherapy and at weekly intervals thereafter were estimated using two dimensional caliper measurements and calculated with the formula for an ellipsoid. Tumor weight was L X W^2 ×0.5, where L is the major axis and […] is the width of the tumor. The percentage of tumor growth (%TGI) was calculated according to the formula (1-(mean tumor weight of treated group/mean tumor weight of control group))×100. The tumor weights were corrected for tumor weight at the beginning of treatment. Tumor growth inhibition data were analyzed for statistical significance using the pooled variance t test. The tumor weights were monitored until termination of experiment.
Several studies of salt preparations, different formulations, and various administration routes and schedules were performed for the compounds of example 5 or 6 in order to identify their in vivo antitumor activities for human COLO 205 solid tumors. Tumor growth inhibitor studies of the compound of Example 5 were carried out in 1% carboxymethyl-cellulose against human COLO 205 solid tumors in SCID mice by ip administration with a schedule of Q4D×3 or by iv administration with a schedule of (Q1D×5)×2. Tumor growth inhibition studies of the compound at Example 6 were carried out in distilled H2 O against human COLO 205 solid tumor in SCID mice by iv administration with a schedule of (Q2D×3)×2 or in 2.5% cremophor against human COLO 205 solid tumor in SCID mice by iv administration with a schedule of (Q2D×3)×2.

SMILES: O=c1[nH]cc(F)c(=O)[nH]1 [Example 5-Fu, reference compound]
DNA intercalating activity ([1]; negative control): did not show DNA intercalating activity

solubility [2]: 10000 µg/mL
SMILES: COc1ccc2nc3cc(Cl)ccc3c(NCCCN(C)CCCNc3c4ccc(Cl)cc4nc4ccc(OC)cc34)c2c1 [Example 12 (acetic acid salt)]

solubility [2]: 8000 µg/mL (≈ 13 mM)
SMILES: COc1ccc2nc3cc(Cl)ccc3c(NCCCNCCCNc3c4ccc(Cl)cc4nc4ccc(OC)cc34)c2c1 [Example 6]
in vivo antitumor activity, dose-response relationship ([3]; 2.5% cremophor, iv, (Q2D×3)×2): had the dose-response relationship of in vivo antitumor activity
in vivo antitumor activity ([3]; distilled H2O, iv, (Q2D×3)×2): demonstrated in vivo antitumor activity

SMILES: COc1ccc2nc3cc(Cl)ccc3c(NCCCNCCCNc3c4ccc(Cl)cc4nc4ccc(OC)cc34)c2c1 [Example 5]
in vivo antitumor activity ([3]; 1% carboxymethyl-cellulose, ip, Q4D×3): did not show in vivo antitumor activity
in vivo antitumor activity ([3]; 1% carboxymethyl-cellulose, iv, (Q1D×5)×2): did not show in vivo antitumor activity

SMILES: COc1cccc2c1C(=O)c1c(O)c3c(c(O)c1C2=O)C[C@@](O)(C(=O)CO)C[C@@H]3O[C@H]1C[C@H](N)[C@H](O)[C@H](C)O1 [adriarnycin, reference compound]
EC50 ([1]; pUC19 plasmid, 30 minutes, 25° C., pH 7.4, read-out: SC50 (50% shift concentration)): 10 to 15 µM
